Source: ChEMBL document CHEMBL4616645, “Dysidealactams and Dysidealactones: Sesquiterpene Glycinyl-Lactams, Imides, and Lactones from a Dysidea sp. Marine Sponge Collected in Southern Australia” (J Nat Prod, 2020)
The source made the active and inactive calls.

Columns and labels:
[1] = tested on: Escherichia coli; assay: Antibacterial activity against Escherichia coli ATCC 11775 assessed as reduction In microbial growth up to 30 uM after 24 hrs by spectrophotometric method; type: functional, organism-based
[2] = tested on: Bacillus subtilis; assay: Antibacterial activity against Bacillus subtilis ATCC 6051 assessed as reduction In microbial growth up to 30 uM after 24 hrs by spectrophotometric method; type: functional, organism-based
[3] = tested on: Candida albicans; assay: Antifungal activity against Candida albicans ATCC 10231 assessed as reduction In microbial growth up to 30 uM after 24 hrs by spectrophotometric method; type: functional, organism-based
[4] = tested on: SW-620; assay: Cytotoxicity against human SW620 cells assessed as reduction in cell viability up to 30 uM after 48 hrs by MTT assay; type: functional, cell-based
[5] = tested on: NCI-H460; assay: Cytotoxicity against human NCI-H460 cells assessed as reduction in cell viability up to 30 uM uM after 48 hrs by MTT assay; type: functional, cell-based

Measured: Activity

CCO[C@@H]1C2=C(CC[C@H]3C(C)(C)CCC[C@]23C)C(=O)N1CC(=O)O
inactive: all assays above

CC1(C)CCC[C@]2(C)C3=C(CC[C@@H]12)C(=O)OC3O (stereo not given in full)
inactive: all assays above

CC1(C)CCC[C@]2(C)C3=C(CC[C@@H]12)C(O)OC3=O (stereo not given in full)
inactive: all assays above

CC1(C)CCC[C@]2(C)C3=C(CC[C@@H]12)C(=O)N(CC(=O)O)[C@H]3O
inactive: all assays above

CC1(C)CCC[C@]2(C)C3=C(CC[C@@H]12)C(=O)N(CC(=O)O)[C@@H]3O
inactive: all assays above

CC1(C)CCC[C@]2(C)C3=C(CC[C@@H]12)CN(CC(=O)O)C3=O
inactive: all assays above

CC1(C)CCC[C@]2(C)C3=C(CC[C@@H]12)C(=O)NC3=O
inactive: all assays above

CC1(C)CCC[C@]2(C)C3=C(CC[C@@H]12)C(=O)N(CC(=O)O)C3
inactive: all assays above

CC1(C)CCC[C@]2(C)C3=C(CC[C@@H]12)C(=O)N(CC(=O)O)C3=O
inactive: all assays above

CCO[C@H]1C2=C(CC[C@H]3C(C)(C)CCC[C@]23C)C(=O)N1CC(=O)O
inactive: all assays above
